Experimental data from US20090076111A1, “Methods for improving glycemic control in humans” (priority 2004, published 2009).

Experiments:
[1] = Preclinical oral bioavailability and urinary excretion of 4-OH-Ile in PROMILIN; type: in vivo, rat; details: rats
Experimental: In addition to the human clinical portion of the study, preclinical trials were conducted in rats to assess if the 4-OH-Ile in PROMILIN™ is orally bioavailable to rats and if it is excreted in their urine.

[2] = test system: pancreatic beta cell; details: major isomer (2S,3R,4S), micromolar concentrations, glucose dependent; cited from earlier work

oral bioavailability ([1]; 4-OH-Ile in PROMILIN, oral): bioavailable
time to absorption from the gut into the circulation ([1]; both diastereomers, after oral gavage of PROMILIN): ≤ 15 min
urinary excretion ([1]; both isomers): excreted in the urine
appearance of 4-OH-Ile in the circulation ([1]; coadministration of glucose and PROMILIN): slowed the appearance
Structure (SMILES): CC(O)C(C)C(N)C(=O)O (racemic) [4-OH-Ile, 4-hydroxyisoleucine]
glucose-induced insulin secretion [2]: stimulate glucose-induced insulin secretion
